Assays:
Assay in all cases: Post-emergence efficacy, Method A
Type in all cases: in vivo
[1] = test system: Digitaria sanguinalis (DIGSA); details: Application rate 500 g/Ha, evaluated after 13 days; for Control of weed species after post-emergence application, DIGSA: 100=total damage to plant, 0=no damage; for Control of weed species DIGSA after post-emergence application (100=total damage to plant; 0=no damage to plant): Method A
Experimental: (§1) Seeds of a variety of test species were sown in standard soil in pots. After cultivation for 14 days (post-emergence) under controlled conditions in a glasshouse (at 24/16° C., day/night; 14 hours light; 65% humidity), the plants were sprayed with an aqueous spray solution derived from the dissolution of the technical active ingredient formula (I) in a small amount of acetone and a special solvent and emulsifier mixture referred to as IF50 (11.12% Emulsogen EL360 TM+44.44% N-methylpyrrolidone+44.44% Dowanol DPM glycol ether), to create a 50 g/l solution which was then diluted to required concentration using 0.25% or 1% Empicol ESC70 (Sodium lauryl ether sulphate)+1% ammonium sulphate as diluent.
(§2) The test plants were then grown in a glasshouse under controlled conditions (at 24/16° C., day/night; 14 hours light; 65% humidity) and watered twice daily. After 13 days the test was evaluated (100=total damage to plant; 0=no damage to plant).
(§3) Ipomoea hederacea (IPOHE), Euphorbia heterophylla (EPHHL), Chenopodium album (CHEAL), Amaranthus palmeri (AMAPA), Lolium perenne (LOLPE), Digitaria sanguinalis (DIGSA), Eleusine indica (ELEIN), Echinochloa crus-galli (ECHCG), Setaria faberi (SETFA)

[2] = test system: Echinochloa crus-galli (ECHCG); details: Application rate 500 g/Ha, evaluated after 13 days; for Control of weed species after post-emergence application, ECHCG: 100=total damage to plant, 0=no damage; for Control of weed species ECHCG after post-emergence application (100=total damage to plant; 0=no damage to plant): Method A
Experimental: as §1, §2, §3

[3] = test system: Eleusine indica (ELEIN); details: Application rate 500 g/Ha, evaluated after 13 days; for Control of weed species after post-emergence application, ELEIN: 100=total damage to plant, 0=no damage; for Control of weed species ELEIN after post-emergence application (100=total damage to plant; 0=no damage to plant): Method A
Experimental: as §1, §2, §3

[4] = test system: Amaranthus palmeri (AMAPA); details: Application rate 500 g/Ha, evaluated after 13 days; for Control of weed species after post-emergence application, AMAPA: 100=total damage to plant, 0=no damage; for Control of weed species AMAPA after post-emergence application (100=total damage to plant; 0=no damage to plant): Method A
Experimental: as §1, §2, §3

[5] = test system: Euphorbia heterophylla (EPHHL); details: Application rate 500 g/Ha, evaluated after 13 days; for Control of weed species after post-emergence application, EPHHL: 100=total damage to plant, 0=no damage; for Control of weed species EPHHL after post-emergence application (100=total damage to plant; 0=no damage to plant): Method A
Experimental: as §1, §2, §3

[6] = test system: Chenopodium album (CHEAL); details: Application rate 500 g/Ha, evaluated after 13 days; for Control of weed species after post-emergence application, CHEAL: 100=total damage to plant, 0=no damage; for Control of weed species CHEAL after post-emergence application (100=total damage to plant; 0=no damage to plant): Method A
Experimental: as §1, §2, §3

[7] = test system: Setaria faberi (SETFA); details: Application rate 500 g/Ha, evaluated after 13 days; for Control of weed species after post-emergence application, SETFA: 100=total damage to plant, 0=no damage; for Control of weed species SETFA after post-emergence application (100=total damage to plant; 0=no damage to plant): Method A
Experimental: as §1, §2, §3

Compound	Control of weed species after post-emergence application, DIGSA [1]	Control of weed species after post-emergence application, ECHCG [2]	Control of weed species after post-emergence application, ELEIN [3]	Control of weed species after post-emergence application, AMAPA [4]	Control of weed species after post-emergence application, EPHHL [5]	Control of weed species after post-emergence application, CHEAL [6]	Control of weed species after post-emergence application, SETFA [7]	Control of weed species DIGSA after post-emergence application (100=total damage to plant; 0=no damage to plant) [1]	Control of weed species ECHCG after post-emergence application (100=total damage to plant; 0=no damage to plant) [2]	Control of weed species ELEIN after post-emergence application (100=total damage to plant; 0=no damage to plant) [3]	Control of weed species AMAPA after post-emergence application (100=total damage to plant; 0=no damage to plant) [4]	Control of weed species EPHHL after post-emergence application (100=total damage to plant; 0=no damage to plant) [5]	Control of weed species CHEAL after post-emergence application (100=total damage to plant; 0=no damage to plant) [6]	Control of weed species SETFA after post-emergence application (100=total damage to plant; 0=no damage to plant) [7]
O=C(O)C(O)C[n+]1ccc(-c2ccncn2)cn1.O=C([O-])C(F)(F)F (centres unmarked) [Compound A190]	60	60	70	100	80	80	40							
O=C(O)CC[n+]1ccc(-c2ncc(C(F)(F)F)cc2Cl)cn1.O=C([O-])C(F)(F)F [Compound A197]	20	0	10	100	10	10	0							
CC(C(=O)OC(C)(C)C)[n+]1ccc(-c2ncccn2)cn1.O=C([O-])C(F)(F)F (centres unmarked) [Compound A193]	30	10	30	70	60	60	10							
CC(C)(C[n+]1ccc(-c2ccncn2)cn1)C(=O)O.O=C([O-])C(F)(F)F [Compound A167]	50	60	80	20	90	70	40							
CC(CC(=O)O)[n+]1ccc(-c2ccncn2)cn1.O=C([O-])C(F)(F)F (centres unmarked) [Compound A172]	80	50	70	30	50	60	50							
O=C(O)CC[n+]1ccc(-c2ncccc2Cl)cn1.O=C([O-])C(F)(F)F [Compound A149]								50	50	60	30	30	40	40
Cc1n[n+](CCC(=O)O)ccc1-c1ccccn1.O=C([O-])C(F)(F)F [Compound A145]								10	0	0	10	10	10	0
O=C([O-])C(F)(F)F.OCC[n+]1ccc(-c2ncccn2)cn1 [Compound A195, 2-(4-pyrimidin-2-ylpyridazin-1-ium-1-yl)ethanol 2,2,2-trifluoroacetate]	20	10	10			60								
COC(=O)c1ccc(C[n+]2ccc(-c3ncccn3)cn2)cc1.O=C([O-])C(F)(F)F [Compound A229]	20	0	0	10		0	10							
O=C([O-])C(F)(F)F.O=P(O)(O)CCC[n+]1ccc(-c2ncccn2)cn1 [Compound A233]	60	60	50	100		100	70							
CC(C[n+]1ccc(-c2ccncn2)cn1)C(=O)O.O=C([O-])C(F)(F)F (centres unmarked) [Compound A171]	60	60	80	100		80	60							
N[C@@H](CC[n+]1ccc(-c2ncccn2)cn1)C(=O)O.O=C(O)C(F)(F)F.O=C([O-])C(F)(F)F [Compound A201, [(1S)-1-carboxy-3-(4-pyrimidin-2-ylpyridazin-1-ium-1-yl)propyl]ammonium 2,2,2-trifluoroacetate]	80	70					80							
O=C(O)c1ccc(C[n+]2ccc(-c3ncccn3)cn2)cc1.O=C([O-])C(F)(F)F [Compound A228]	20	10	10	80		60	10							
N#Cc1ccc(-c2cc[n+](CCC(=O)O)nc2)nc1.O=C([O-])C(F)(F)F [Compound A176]	30	30	70	40		30	40							
Cc1nccc(-c2cc[n+](CCC(=O)O)nc2)n1.O=C([O-])C(F)(F)F [Compound A55]								100	90	100		70	80	100
Nc1cc(-c2cc[n+](CCC(=O)O)nc2)ncn1.O=C([O-])C(F)(F)F [Compound A163]	50	40	90	100	50	60								

Source: patent US11618743B2, “Herbicidal compounds” (SYNGENTA PARTICIPATIONS AG, priority 2017, dated 2023)
